Assay results from patent US20110092517A1, “Use of PPAR Delta Ligands for the Treatment or Prevention of Inflammation or Energy Metabolism/Production Related Diseases” (Cerenis Therapeutics S.A. & Nippon Chemiphar Co., Ltd., priority 2009, published 2011).
“And” between values parts separate entries of the source, which are not always exact repeats. Equal entries are not always repeated. Where two headings read alike, the source gives them in different places.

What was measured:
[1] = target: T1, mouse PPARδ (Mus musculus, UniProt P35396); test: GAL4-PPAR chimera transactivation assay in CV-1 cells at 10% or 0.1% serum (Example 4); type: cell-based; conditions: read-out: GAL4-chimera (mouse) EC50 (μM) hPPARδ
T1 construct: amino acids 139-440 for m; expressed in transfected cells; host or cells: CV-1
T1 sequence (P35396 139-440): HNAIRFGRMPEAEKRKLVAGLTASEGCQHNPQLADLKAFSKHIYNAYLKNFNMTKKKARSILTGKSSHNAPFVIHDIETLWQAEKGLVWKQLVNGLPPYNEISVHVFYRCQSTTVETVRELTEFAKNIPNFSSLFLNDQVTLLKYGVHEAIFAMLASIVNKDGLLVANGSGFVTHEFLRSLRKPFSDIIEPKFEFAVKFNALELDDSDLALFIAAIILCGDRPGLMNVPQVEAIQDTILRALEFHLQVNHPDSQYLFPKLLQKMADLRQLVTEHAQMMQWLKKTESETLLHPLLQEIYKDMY

[2] = Plasma biochemistry after 17 days of treatment in WD fed rats (glycemia, insulin, HOMA-IR, adiponectin, FFA, TG); type: in vivo, rat
[3] = tested on: TNF-α; test: TNF-α content in liver and epididymal white adipose tissue after 5 weeks of treatment in WD fed rats (ELISA); type: in vivo, rat; conditions: metformin 50, GW501516 10, compound I.1 10 mg/kg (alone or +metformin 50 mg/kg)
Experimental: At the end of the clamp procedure (9.5 hours fasting), perirenal, retroperitoneal, epididymal and inguinal fat pads and liver weights were recorded. Blood was collected from cardiac puncture and plasmas were stored at −80° C. for further assays if needed (depending on the radioactive state of samples). Liver triglyceride content was assessed (enzymatic-colorimetric method) as well as liver and adipose tissue TNF-α content (ELISA method).

[4] = Body weight follow-up during treatment in rats fed a high fat/medium fructose diet (WD); type: in vivo, rat; conditions: oral once daily
Excerpt: The first set of rats was undergoing an OGTT after 3 weeks of treatment (half rats/group of the clamp arm) and the second set was also undergoing an OGTT after 3 weeks of treatment (half rats/group of clamp arm) and the Histology study (3 rats/group). […] Homogenous mild obese and insulin resistant rats were allocated into the different treatment groups and western diet was continued until the end of the experiment. Given that, the 2 series started with a gap of one week Dosage regimen: Rats were treated once daily via the oral route, in the morning. The duration of the treatment was between 5 and 5.5 weeks. […], 10 mg/Kg (n=12) […] The second set of rats was weighted at 8:30 on days 17 and 21, at 1:45 pm on day 24 and at 11:10 am on day 28.

[5] = target: T2, mouse PPARγ (Mus musculus, UniProt P37238); test: GAL4-PPAR chimera transactivation assay in CV-1 cells at 10% or 0.1% serum (Example 4); type: cell-based; conditions: read-out: GAL4-chimera (mouse) EC50 (μM) hPPARγ
T2 construct: amino acids 204-505 for m and mm from PPARγ; expressed in transfected cells; host or cells: CV-1
T2 sequence (P37238 204-505): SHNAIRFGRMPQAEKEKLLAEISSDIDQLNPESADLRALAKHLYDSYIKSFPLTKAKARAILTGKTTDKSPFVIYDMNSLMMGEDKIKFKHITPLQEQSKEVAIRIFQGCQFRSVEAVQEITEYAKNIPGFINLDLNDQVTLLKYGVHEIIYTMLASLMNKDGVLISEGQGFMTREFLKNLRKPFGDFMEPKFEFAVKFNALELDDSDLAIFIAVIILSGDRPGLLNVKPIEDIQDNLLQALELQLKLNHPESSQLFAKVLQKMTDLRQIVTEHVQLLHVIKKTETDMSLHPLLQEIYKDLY

[6] = tested on: Tibialis-anterior muscle fibers; test: Histochemical staining for succinate dehydrogenase (SDH) of tibialis-anterior muscle, quantification of oxidative fibers; type: in vivo, rat; conditions: for Biopsis #1 Non-oxydative fibers (pixels) / Biopsis #1 oxydative fibers (% from total pixels) / Biopsis #1 oxydative fibers (pixels) / Biopsis #2 Non-oxydative fibers (pixels) / Biopsis #2 oxydative fibers (% from total pixels) / Biopsis #2 oxydative fibers (pixels): rat tibialis-anterior, individual animals
Experimental: The muscle fibers on a set of animals that were treated with the compound 1.1 at the doses of 3 or 10 mg/kg once a day for 3 weeks are analyzed. Tibialis-anterior from 3 animals per group were used for both morpho-histology analysis and molecular analysis of specific markers of mitochondrial activities. The histology analysis was preformed on cryosection followed by a histochemical staining for succinate dehydrogenase (SDH) (Luquet S. et al., FASEB J, 2003. 17(15): p. 2299-301). Two biopsies of each muscle samples were generated and analyzed.
The quantification was performed by using Adobe Photoshop software (Lehr et al. Histochem Cytochem, 1997. 45(11): p. 1559-65, J Histochem Cytochem, 1999. 47(1): p. 119-26), and was based on pictures (in TIFF format) obtained from different slides of muscle (Tibialis-Anterior).
For each picture identical areas of about 57000 pixels at similar magnification were selected and the surface occupied by the stained fibers was measured (FIG. 1). The results are expressed as the percentage of the area of highly-stained and moderately-stain fibers from the total area selected. The analysis is performed in a blinded fashion.
Statistical analysis (Prism-Graphpad) was performed using unpaired T-test with: * corresponding to p<0.05 and ** to p<0.01.

[7] = target: T3, mouse PPARα (Mus musculus, UniProt P23204); test: GAL4-PPAR chimera transactivation assay in CV-1 cells at 10% or 0.1% serum (Example 4); type: cell-based; conditions: read-out: GAL4-chimera (mouse) EC50 (μM) hPPARα
T3 construct: amino acids 167-468 for hs and m; expressed in transfected cells; host or cells: CV-1
T3 sequence (P23204 167-468): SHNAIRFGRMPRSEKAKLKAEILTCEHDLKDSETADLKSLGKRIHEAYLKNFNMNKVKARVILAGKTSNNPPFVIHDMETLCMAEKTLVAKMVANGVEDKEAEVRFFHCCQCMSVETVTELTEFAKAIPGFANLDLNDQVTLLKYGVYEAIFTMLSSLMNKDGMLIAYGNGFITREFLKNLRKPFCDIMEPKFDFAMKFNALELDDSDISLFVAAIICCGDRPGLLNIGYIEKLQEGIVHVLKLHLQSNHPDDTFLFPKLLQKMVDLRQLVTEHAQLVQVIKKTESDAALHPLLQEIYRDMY

[8] = 3 mg/kg once a day for 3 weeks, listed as COMP.I.1, 3 mg/kg
[9] = 10 mg/kg once a day for 3 weeks
[10] = 10 mg/kg once a day for 3 weeks, listed as COMP.I.1, 10 mg/kg

## Cc1cc(C(=O)CCc2sc(-c3ccc(C(F)(F)F)cc3)nc2C(C)C)ccc1OCC(=O)O [compound I.1, 4-[3-[4-Isopropyl-2-[4-(trifluoromethyl)phenyl]-5-thiazolyl]propionyl]-2-methylphenoxyacetic acid]
[1]; 0.1% serum
  EC50: 0.065 ± 0.001 µM
[1]; 10% serum
  EC50: 0.327 ± 0.07 µM
[2]; 4 h fasted, pioglitazone 10, metformin 50, GW501516 10, compound I.1 10 mg/kg
  Decrease of HOMA-IR: ~25% and 28%
[2]; pioglitazone 10, metformin 50, GW501516 10, compound I.1 3 and 10 mg/kg
  Plasma adiponectin levels: did not prevent a decrease
[3]
  Decrease of TNF-α levels in epididymal white adipose tissues: 51%
[4]; compound I.1 3 mg/kg (alone or +metformin 50 mg/kg)
  Body weight / body weight gain during treatment: did not affect body weight gain
[4]; pioglitazone 10, metformin 50, GW501516 10, compound I.1 10 mg/kg (alone or +metformin 50 mg/kg)
  Body weight / body weight gain during treatment: decreased thereafter body weight gain, until a significant effect after 4 weeks of treatment
[5]; 0.1% serum
  EC50: > 10 µM
[5]; 10% serum
  EC50: > 10 µM
[6]; WD fed rats, SDH histology, dose not specified
  Increase of the number of oxidative fiber in tibialis muscle: about 50%
[6]; [8]
  Biopsis #1 Non-oxydative fibers (pixels): 15343 pixels and 16157 pixels and 27185 pixels
  Biopsis #1 oxydative fibers (% from total pixels): 73.56 % from total pixels and 72.16 % from total pixels and 51.41 % from total pixels
  Biopsis #1 oxydative fibers (pixels): 42685 pixels and 41871 pixels and 28767 pixels
  Biopsis #2 Non-oxydative fibers (pixels): 16208 pixels and 1109 pixels and 16402 pixels
  Biopsis #2 oxydative fibers (% from total pixels): 72.07 % from total pixels and 81.01 % from total pixels and 69.92 % from total pixels
  Biopsis #2 oxydative fibers (pixels): 41820 pixels and 47009 pixels and 38128 pixels
[6]; [9]
  Biopsis #2 Non-oxydative fibers (pixels): 9243 pixels
  Biopsis #2 oxydative fibers (% from total pixels): 83.06 % from total pixels
  Biopsis #2 oxydative fibers (pixels): 45326 pixels
[6]; [10]
  Biopsis #1 Non-oxydative fibers (pixels): 18992 pixels and 27170 pixels and 16958 pixels
  Biopsis #1 oxydative fibers (% from total pixels): 68.84 % from total pixels and 52.66 % from total pixels and 70.78 % from total pixels
  Biopsis #1 oxydative fibers (pixels): 35030 pixels and 30218 pixels and 41070 pixels
[7]; 0.1% serum
  EC50: > 10 µM
[7]; 10% serum
  EC50: > 10 µM
